Literature values in patent publication US20180185484A1, “PREPARATION AND USE OF PLATELET PRODUCTS” (Cerus Corporation, priority 2015, published 2018).

Tested on: T lymphocytes
Settings: treated platelet preparations, after photoactivation; Grass et al., 1998

## Cc1oc2c(C)c3oc(=O)cc(C)c3cc2c1COCCN [amotosalen, 4′-(4-amino-2-oxa)butyl-4,5′,8-trimethylpsoralen]
  reduction of viable T lymphocytes: greater than 5 logs
